Results published in PubChem BioAssay AID1963986 (Molecular Pharmacology Branch, DTP, NCI, 2024).

Test system: 171881-019-R-J1-PDC tumor spheroid viability
Test: Anticancer human tumor 171881-019-R-J1-PDC patient-derived invasive breast carcinoma cell line growth inhibition [PI3K]
Settings: spheroids with HUVEC and MSC; for IC50: curve of first compound; for viability, T/C: stronger effect = lower value
Summary of the method: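 Complex 3D spheroids (cancer cells + endothelial HUVEC + mesenchymal stem cells); drug pairs of targeted agent x inavolisib/alpelisib/duvelisib/copanlisib; half-log series from ~Cmax, max 10 microM if Cmax unknown; endpoint viability.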

[1] = second compound 0.0316 µM, first compound 0.0316 µM
[2] = second compound 0.0316 µM, first compound 0.1 µM
[3] = second compound 0.0316 µM, first compound 0.316 µM
[4] = second compound 0.0316 µM, first compound 1 µM
[5] = second compound 0.0316 µM, first compound 3.16 µM
[6] = second compound 0.0316 µM, first compound 10 µM
[7] = second compound 0.1 µM, first compound 0.0316 µM
[8] = second compound 0.1 µM, first compound 0.1 µM
[9] = second compound 0.1 µM, first compound 0.316 µM
[10] = second compound 0.1 µM, first compound 1 µM
[11] = second compound 0.1 µM, first compound 3.16 µM
[12] = second compound 0.1 µM, first compound 10 µM
[13] = second compound 0.316 µM, first compound 0.0316 µM
[14] = second compound 0.316 µM, first compound 0.1 µM
[15] = second compound 0.316 µM, first compound 0.316 µM
[16] = second compound 0.316 µM, first compound 1 µM
[17] = second compound 0.316 µM, first compound 3.16 µM
[18] = second compound 0.316 µM, first compound 10 µM
[19] = second compound 1 µM, first compound 0.0316 µM
[20] = second compound 1 µM, first compound 0.1 µM
[21] = second compound 1 µM, first compound 0.316 µM
[22] = second compound 1 µM, first compound 1 µM
[23] = second compound 1 µM, first compound 3.16 µM
[24] = second compound 1 µM, first compound 10 µM
[25] = second compound 3.16 µM, first compound 0.0316 µM
[26] = second compound 3.16 µM, first compound 0.1 µM
[27] = second compound 3.16 µM, first compound 0.316 µM
[28] = second compound 3.16 µM, first compound 1 µM
[29] = second compound 3.16 µM, first compound 3.16 µM
[30] = second compound 3.16 µM, first compound 10 µM
[31] = second compound 10 µM, first compound 0.0316 µM
[32] = second compound 10 µM, first compound 0.1 µM
[33] = second compound 10 µM, first compound 0.316 µM
[34] = second compound 10 µM, first compound 1 µM
[35] = second compound 10 µM, first compound 3.16 µM
[36] = second compound 10 µM, first compound 10 µM
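Note: spheroids exposed to compound for 7 days before viability read.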
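Throughout, for viability, T/C: 100% = DMSO vehicle-treated spheroids.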

CC(C)NCC(C(=O)N1CCN(c2ncnc3c2C(C)CC3O)CC1)c1ccc(Cl)cc1 (stereo unspecified) + Cc1nc(NC(=O)N2CCCC2C(N)=O)sc1-c1ccnc(C(C)(C)C(F)(F)F)c1 was tested, and the IC50 (second compound 0.0316 µM) was 276 nM, the IC50 (second compound 0.1 µM) was 262 nM and the IC50 (second compound 0.316 µM) was 72.8 nM. The IC50 (second compound 1 µM) was less than 31.6 nM, the IC50 (second compound 3.16 µM) was less than 31.6 nM and the IC50 (second compound 10 µM) was less than 31.6 nM. For the same compound, the viability, T/C [1] was 97.9%, the viability, T/C [2] was 68.3% and the viability, T/C [3] was 50.1%. The viability, T/C [4] was 28.4%, the viability, T/C [5] was 16.7% and the viability, T/C [6] was 9.99%. The viability, T/C [7] was 81.6%, the viability, T/C [8] was 64.3% and the viability, T/C [9] was 49.5%. The viability, T/C [10] was 25.9%, the viability, T/C [11] was 13.6% and the viability, T/C [12] was 8.89%. For the same compound, the viability, T/C [13] was 55.5%, the viability, T/C [14] was 46.7% and the viability, T/C [15] was 38%. For the same compound, the viability, T/C [16] was 23.2%, the viability, T/C [17] was 12.6% and the viability, T/C [18] was 8.17%. It also gave a viability, T/C [19] of 32%, a viability, T/C [20] of 31% and a viability, T/C [21] of 28.6%. For the same compound, the viability, T/C [22] was 16.1%, the viability, T/C [23] was 8.99% and the viability, T/C [24] was 7.16%. The viability, T/C [25] was 14.6%, the viability, T/C [26] was 14.8% and the viability, T/C [27] was 12.4%. The viability, T/C [28] was 8.95%, the viability, T/C [29] was 6.94% and the viability, T/C [30] was 4.98%. It also gave a viability, T/C [31] of 3.06%, a viability, T/C [32] of 3.52% and a viability, T/C [33] of 3.3%. The viability, T/C [34] was 3.85%, the viability, T/C [35] was 2.77% and the viability, T/C [36] was 1.56%.

Work on CCN1CCN(Cc2ccc(Nc3ncc(F)c(-c4cc(F)c5nc(C)n(C(C)C)c5c4)n3)nc2)CC1 + Cc1nc(NC(=O)N2CCCC2C(N)=O)sc1-c1ccnc(C(C)(C)C(F)(F)F)c1 yielded an IC50 (second compound 0.0316 µM) greater than 1000 nM, an IC50 (second compound 0.1 µM) greater than 1000 nM and an IC50 (second compound 0.316 µM) greater than 1000 nM. The IC50 (second compound 1 µM) was less than 3.16 nM, the IC50 (second compound 3.16 µM) was less than 3.16 nM and the IC50 (second compound 10 µM) was less than 3.16 nM. It also gave a viability, T/C (second compound 0.0316 µM, first compound 0.00316 µM) of 102%, a viability, T/C (second compound 0.0316 µM, first compound 0.01 µM) of 92.9% and a viability, T/C [1] of 98.6%. For the same compound, the viability, T/C [2] was 103%, the viability, T/C [3] was 111% and the viability, T/C [4] was 103%. It also gave a viability, T/C (second compound 0.1 µM, first compound 0.00316 µM) of 83.9%, a viability, T/C (second compound 0.1 µM, first compound 0.01 µM) of 85.8% and a viability, T/C [7] of 91.5%. The viability, T/C [8] was 91.9%, the viability, T/C [9] was 105% and the viability, T/C [10] was 104%. It also gave a viability, T/C (second compound 0.316 µM, first compound 0.00316 µM) of 59.5%, a viability, T/C (second compound 0.316 µM, first compound 0.01 µM) of 61.1% and a viability, T/C [13] of 72.2%. It also gave a viability, T/C [14] of 73.8%, a viability, T/C [15] of 80.7% and a viability, T/C [16] of 83.3%. The viability, T/C (second compound 1 µM, first compound 0.00316 µM) was 37.2%, the viability, T/C (second compound 1 µM, first compound 0.01 µM) was 38.8% and the viability, T/C [19] was 39.1%. For the same compound, the viability, T/C [20] was 45%, the viability, T/C [21] was 53.3% and the viability, T/C [22] was 61.5%. The viability, T/C (second compound 3.16 µM, first compound 0.00316 µM) was 15.4%, the viability, T/C (second compound 3.16 µM, first compound 0.01 µM) was 17% and the viability, T/C [25] was 19.5%. For the same compound, the viability, T/C [26] was 21%, the viability, T/C [27] was 28.6% and the viability, T/C [28] was 42%. It also gave a viability, T/C (second compound 10 µM, first compound 0.00316 µM) of 3.79%, a viability, T/C (second compound 10 µM, first compound 0.01 µM) of 4.44% and a viability, T/C [31] of 4.59%. It also gave a viability, T/C [32] of 4.85%, a viability, T/C [33] of 8.73% and a viability, T/C [34] of 14.2%.

With Cn1ncc(Cl)c1-c1cc(C(=O)NC(CN)Cc2cccc(F)c2)sc1Cl (stereo unspecified) + Cc1nc(NC(=O)N2CCCC2C(N)=O)sc1-c1ccnc(C(C)(C)C(F)(F)F)c1 the IC50 (second compound 0.0316 µM) was 155 nM, the IC50 (second compound 0.1 µM) was 90.7 nM and the IC50 (second compound 0.316 µM) was 32.9 nM. It also gave an IC50 (second compound 1 µM) of less than 31.6 nM, an IC50 (second compound 3.16 µM) of less than 31.6 nM and an IC50 (second compound 10 µM) of less than 31.6 nM. It also gave a viability, T/C [1] of 77.8%, a viability, T/C [2] of 60% and a viability, T/C [3] of 34.2%. It also gave a viability, T/C [4] of 20.2%, a viability, T/C [5] of 11.4% and a viability, T/C [6] of 4.55%. It also gave a viability, T/C [7] of 71.3%, a viability, T/C [8] of 47.4% and a viability, T/C [9] of 31.6%. It also gave a viability, T/C [10] of 17.6%, a viability, T/C [11] of 11.4% and a viability, T/C [12] of 4.51%. It also gave a viability, T/C [13] of 50.1%, a viability, T/C [14] of 42.2% and a viability, T/C [15] of 28.9%. It also gave a viability, T/C [16] of 16.3%, a viability, T/C [17] of 9.51% and a viability, T/C [18] of 4.96%. It also gave a viability, T/C [19] of 32.2%, a viability, T/C [20] of 29.3% and a viability, T/C [21] of 19.2%. It also gave a viability, T/C [22] of 12.7%, a viability, T/C [23] of 8.96% and a viability, T/C [24] of 3.93%. It also gave a viability, T/C [25] of 13.7%, a viability, T/C [26] of 13.4% and a viability, T/C [27] of 11.3%. It also gave a viability, T/C [28] of 8.81%, a viability, T/C [29] of 6.34% and a viability, T/C [30] of 1.66%. The viability, T/C [31] was 3.8%, the viability, T/C [32] was 3.93% and the viability, T/C [33] was 3.32%. For the same compound, the viability, T/C [34] was 2.79%, the viability, T/C [35] was 1.39% and the viability, T/C [36] was 0.18%.
